According to patent US5480887A, “Protease inhibitors” (Eli Lilly and Company, priority 1994, dated 1996):
Like-named read-outs stand apart in the source and are kept apart here.

How the values were obtained:
HIV-1 Protease = molecular target: T1, HIV-1 Protease (Human immunodeficiency virus type 1 group M subtype B, UniProt P04585); experiment: biochemical; settings: for IC50: read-out: Fluorescence Assay IC50 (converted); for inhibition at 0.00016 µg/mL: read-out: % inhibition at the stated concentration (ICx (0.16))
T1 construct: HIV-1 Protease
Method: These compounds may be assayed using two assays: (1) an enzyme inhibition assay, and (2) an antiviral cell culture assay.
This assay is described in detail in published European Patent Application (EPA) 0 526 009, herein incorporated by reference. Using this assay, a number of the compounds, prepared above, were assayed for HIV protease inhibitory activity.
The assay is unable to test compounds at less than a concentration of 0.16 ng/mL.

HIV = experiment: microbe, parasite or virus in culture; type: cell-based; settings: XTT, 450 nm, * (n) = average of n assays, read-out: Antiviral Activity IC90
Method: In addition, the compounds described in the present application may be tested using an antiviral cell culture assay as described in Weislow, O.S., J. of National Cancer Institute, 81(8), pages 577-586 (Apr. 19, 1989) herein incorporated by reference.
This assay compares the viability of HIV-infected cells in a cell culture medium relative to the viability of such cells in the presence of a test compound. The concentration of test compound necessary to inhibit 90% of the virus is then measured using the viability of the cells as an indicator of viral inhibition. This assay is carried out using cell lines that are sensitive to the lyric effects of HIV infection.
Specifically, this assay utilizes the metabolic reduction of a tetrazolium reagent, 2,3-bis[2-methoxy-4-nitro-5-sulfophenyl]-5-[(phenylamino)carbonyl]-2H-tetrazolium hydroxide (XTT). In the presence of a viable cell, the tetrazolium reagent, XTT, is reduced to provide XTT formazan which may be quantified using colorimetric determination (at 450 nm). The intensity of the chromogenic signal is directly proportional to the concentration of the XTT formazan, thus providing a measure of the quantity of viable cells.

[1] = concentration inhibiting 50% of the enzyme, * = calculated average with n number of assays
[2] = Human immunodeficiency virus 1, concentration inhibiting 90% of the viral-induced toxicity
[3] = at 0.16 ng/mL, lowest testable concentration
[4] = concentration inhibiting 90% of the viral-induced toxicity

| Compound | IC90 (HIV; [2]) | IC50 (HIV-1 Protease) | other results |
| --- | --- | --- | --- |
| CC(C)[C@@H]1SCC[C@@H]1OC(=O)N[C@@H](CSc1ccccc1)[C@H](O)CN1C[C@H]2CCS[C@H]2C[C@H]1C(=O)NC(C)(C)C [9B-23 mg sample] | 604 nM |  | IC50 (HIV-1 Protease; [1]): 2.62 nM |
| CC(C)[C@H]1SCC[C@H]1OC(=O)N[C@@H](CSc1ccccc1)[C@H](O)CN1C[C@H]2CCS[C@H]2C[C@H]1C(=O)NC(C)(C)C [9B-24 mg sample] | 78 nM |  | inhibition at 0.00016 µg/mL (HIV-1 Protease; [3]): 53% |
| CC(C)[C@H]1[C@@H](OC(=O)N[C@@H](CSc2ccccc2)[C@H](O)CN2C[C@H]3CCS[C@H]3C[C@H]2C(=O)NC(C)(C)C)CCS1(=O)=O [10B-51 mg sample] | 77 nM | 0.95 nM |  |
| CC(C)[C@@H]1[C@H](OC(=O)N[C@@H](CSc2ccccc2)[C@H](O)CN2C[C@H]3CCS[C@H]3C[C@H]2C(=O)NC(C)(C)C)CCS1(=O)=O [10B-52 mg sample] | 9 nM | 0.421 nM |  |
| CC(C)(C)NC(=O)[C@@H]1C[C@@H]2SCC[C@@H]2CN1C[C@@H](O)[C@H](CSc1ccccc1)NC(=O)O[C@H]1CCS(=O)(=O)C1 [11C-6 mg sample] | 29 nM |  | IC50 (HIV-1 Protease; [1]): 2 nM |
| CC(C)(C)NC(=O)[C@@H]1C[C@@H]2SCC[C@@H]2CN1C[C@@H](O)[C@H](CSc1ccccc1)NC(=O)O[C@@H]1CCS(=O)(=O)C1 [11C-11 mg sample] | 26 nM |  | IC50 (HIV-1 Protease; [1]): 1.52 nM |
| C[C@H]1OCC[C@H]1OC(=O)N[C@@H](CSc1ccccc1)[C@H](O)CN1C[C@H]2CCS[C@H]2C[C@H]1C(=O)NC(C)(C)C [13B-17 mg sample] | 880 nM | 2.72 nM |  |
| C[C@@H]1OCC[C@@H]1OC(=O)N[C@@H](CSc1ccccc1)[C@H](O)CN1C[C@H]2CCS[C@H]2C[C@H]1C(=O)NC(C)(C)C [13B-26 mg sample] | 90 nM |  | inhibition at 0.00016 µg/mL (HIV-1 Protease): 71% |
| C[C@@H]1[C@H](OC(=O)N[C@@H](CSc2ccccc2)[C@H](O)CN2C[C@H]3CCS[C@H]3C[C@H]2C(=O)NC(C)(C)C)CCS1(=O)=O [31D-Fraction A] |  |  | IC90 (HIV; [4]): 30.3 nM |
| C[C@H]1[C@@H](OC(=O)N[C@@H](CSc2ccccc2)[C@H](O)CN2C[C@H]3CCS[C@H]3C[C@H]2C(=O)NC(C)(C)C)CCS1(=O)=O [31D-Fraction B] |  |  | IC90 (HIV; [4]): 31.4 nM |
| C[C@@H]1[C@@H](OC(=O)N[C@@H](CSc2ccccc2)[C@H](O)CN2C[C@H]3CCS[C@H]3C[C@H]2C(=O)NC(C)(C)C)CCS1(=O)=O [34-Fraction A] | 45.2 nM | 7.28 nM |  |
| C[C@H]1[C@H](OC(=O)N[C@@H](CSc2ccccc2)[C@H](O)CN2C[C@H]3CCS[C@H]3C[C@H]2C(=O)NC(C)(C)C)CCS1(=O)=O [34-Fraction B] | 32.1 nM | 27.4 nM |  |
| CC(C)(C)NC(=O)[C@@H]1C[C@@H]2SCC[C@@H]2CN1C[C@@H](O)[C@H](CSc1ccccc1)NC(=O)C[C@@H]1CCS(=O)(=O)C1 [Example 12, N-t-Butyl-octahydro-5[2R-hydroxy-3R-N(1',1'-dioxo-tetrahydrothiophen-3'R-ylmethylcarbonyl)amino-4-phenylthio-butyl]-(3aR,7aS)-thieno[3,2-c] pyridine-(6S)-carboxamide] |  |  | Fluorescence Assay IC50 (HIV-1 Protease; [1]): 0.44 ng/mL; IC90 (HIV; [4]): 96 nM |
| CC(C)(C)NC(=O)[C@@H]1C[C@@H]2SCC[C@@H]2CN1C[C@@H](O)[C@H](CSc1ccccc1)NC(=O)[C@H](CC(N)=O)NC(=O)c1ccc2ccccc2n1 [Example 14C] | 28 nM |  |  |
| CC(=O)N[C@H](CCS(C)(=O)=O)C(=O)N[C@@H](CSc1ccccc1)[C@H](O)CN1C[C@H]2CCS[C@H]2C[C@H]1C(=O)NC(C)(C)C [Example 15B, N-t-Butyl-octahydro-5[2R-hydroxy-3R-phenylthiomethyl-4-aza-5-oxo-6R-N(acetyl)amino-8-methylsulfonyl-octyl]-(3aR,7aS)-thieno[3,2-c]pyridine-(6S)-carboxamide] | 7630 nM |  | IC50 (HIV-1 Protease; [1]): 13.5 nM |
| CC(C)(C)NC(=O)[C@@H]1C[C@@H]2SCC[C@@H]2CN1C[C@@H](O)[C@H](Cc1ccccc1)NC(=O)[C@@H](CS(=O)(=O)c1ccc2ccccc2c1)NS(C)(=O)=O [Example 17B, N-t-Butyl-octahydro-5[2R-hydroxy-3S-phenylmethyl-4-aza-5-oxo-6S-N(methylsulfonyl)amino-7-naphth-2-ylsulfonyl-heptyl]-(3aR,7aS)-thieno[3,2-c]pyridine-(6S)-carboxamide] | 78 nM |  | inhibition at 0.00016 µg/mL (HIV-1 Protease; [3]): 60% |
| CC(C)(C)NC(=O)[C@@H]1C[C@@H]2SCC[C@@H]2CN1C[C@@H](O)[C@H](Cc1ccccc1)NC(=O)[C@@H](CS(=O)(=O)c1ccc2ccccc2c1)NC(=O)C(F)(F)F [Example 17C, N-t-Butyl-octahydro-5[2R-hydroxy-3S-phenylmethyl-4-aza-5-oxo-6S-N(trifluoromethylcarbonyl)amino-7-naphth-2-ylsulfonyl-heptyl]-(3aR,7aS)-thieno[3,2-c]pyridine-(6S)-carboxamide] | 31 nM |  | inhibition at 0.00016 µg/mL (HIV-1 Protease; [3]): 76% |
| CC(C)(C)NC(=O)[C@@H]1C[C@@H]2SCC[C@@H]2CN1C[C@@H](O)[C@H](Cc1ccccc1)NC(=O)[C@@H](CS(=O)(=O)c1ccc(F)cc1)NS(C)(=O)=O [Example 19B, N-t-Butyl-octahydro-5[2R-hydroxy-3S-phenylmethyl-4-aza-5-oxo-6S-N(methylsulfonyl)amino-7-p-fluorophenylsulfonyl-heptyl]-(3aR,7aS)-thieno[3,2-c]pyridine-(6S)-carboxamide] | 233 nM |  | IC50 (HIV-1 Protease; [1]): 0.224 nM |
| CC(C)(C)NC(=O)[C@@H]1C[C@@H]2SCC[C@@H]2CN1C[C@@H](O)[C@H](Cc1ccccc1)NC(=O)[C@@H](CS(=O)(=O)c1ccc(F)cc1)NC(=O)C(F)(F)F [Example 19C, N-t-Butyl-octahydro-5[2R-hydroxy-3S-phenylmethyl-4-aza-5-oxo-6S-N(trifluoromethylcarbonyl)amino-7-p-fluorophenylsulfonyl-heptyl]-(3aR,7aS)-thieno[3,2-c]pyridine-(6S)-carboxamide] | 52 nM | 1.16 nM | inhibition at 0.00016 µg/mL (HIV-1 Protease): 85% |
| CC(=O)N[C@H](CS(=O)(=O)c1ccc(F)cc1)C(=O)N[C@@H](CSc1ccccc1)[C@H](O)CN1C[C@H]2CCS[C@H]2C[C@H]1C(=O)NC(C)(C)C [Example 21B, N-t-Butyl-octahydro-5[2R-hydroxy-3R-phenylthiomethyl-4-aza-5oxo-6S-N(acetyl)amino-7-p-fluorophenylsulfonyl-heptyl]-(3aR,7aS)-thieno[3,2-c]pyridine-(6S)-carboxamide] | 78 nM |  | IC50 (HIV-1 Protease; [1]): 1.83 nM |
| CC(C)(C)NC(=O)[C@@H]1C[C@@H]2SCC[C@@H]2CN1C[C@@H](O)[C@H](Cc1ccccc1)NC(=O)[C@@H](CS(=O)(=O)c1cccc2cccnc12)NC(=O)C(F)(F)F [Example 24B, N-t-Butyl-octahydro-5[2R-hydroxy-3S-phenylmethyl-4-aza-5-oxo-6S-N(trifluoromethylcarbonyl)amino-7-quinolin-8-ylsulfonyl-heptyl]-(3aR,7aS)-thieno[3,2-c]pyridine-(6S)-carboxamide] | 81.8 nM |  |  |
| CC(=O)N[C@H](CS(=O)(=O)c1cccc2cccnc12)C(=O)N[C@@H](Cc1ccccc1)[C@H](O)CN1C[C@H]2CCS[C@H]2C[C@H]1C(=O)NC(C)(C)C [Example 25, N-t-Butyl-octahydro-5[2R-hydroxy-3S-phenylmethyl-4-aza-5-oxo-6S-N(acetyl)amino-7-quinolin-8-ylsulfonyl-heptyl]-(3aR,7aS)-thieno[3,2-c]pyridine-(6S)-carboxamide] | 279 nM | 0.239 nM |  |
| CC(C)(C)NC(=O)[C@@H]1C[C@@H]2SCC[C@@H]2CN1C[C@@H](O)[C@H](Cc1ccccc1)NC(=O)[C@@H](CS(=O)(=O)c1cccc2cccnc12)NS(C)(=O)=O [Example 26, N-t-Butyl-octahydro-5[2R-hydroxy-3S-phenylmethyl-4-aza-5-oxo-6S-N(methylsulfonyl)amino-7-quinolin-8-ylsulfonyl-heptyl]-(3aR,7aS)-thieno[3,2-c]pyridine-(6S)-carboxamide] | 225 nM | 0.389 nM |  |
| CC(=O)N[C@H](CS(=O)(=O)c1ccc2ccccc2c1)C(=O)N[C@@H](Cc1ccccc1)[C@H](O)CN1C[C@H]2CCS[C@H]2C[C@H]1C(=O)NC(C)(C)C [Example 28] | 21.8 nM | 2.67 nM |  |
| CC(C)[C@@H]1[C@H](OC(=O)N[C@@H](CSc2ccccc2)[C@H](O)CN2C[C@H]3CCS[C@H]3C[C@H]2C(=O)NC(C)(C)C)CCS1(=O)=O [Example 40D, N-t-Butyl-octahydro-5[2R-hydroxy-3R-N(1',1'-dioxo-2'R-isopropyl-tetrahydrothiophen-3'R-yloxycarbonyl)amino-4-phenylthio-)-butyl]-(3aR,7aS)-thieno[3,2-c] pyridine-(6S)-carboxamide methanesulfonate] | 7.1 nM |  |  |
